We go through 40 compounds from patent publication US6864219B2, “Substituted aryl ketones” (Bayer Aktiengesellschaft, priority 2000, dated 2005).

Structures are written as SMILES.

One series in a line: log P determination by HPLC on reversed-phase column (C 18), EEC Directive 79/831 V.A8. In kind it is physicochemical. The note with it: labelled a): acidic range, 0.1% aqueous phosphoric acid/acetonitrile gradient, 43° C. The method, then: The log P values given in Table 1 were determined in accordance with EEC Directive 79/831 V.A8 by HPLC (High Performance Liquid Chromatography) on a reversed-phase column (C 18). Temperature: 43° C.
(a) Mobile phases for the determination in the acidic range: 0.1% aqueous phosphoric acid, acetonitrile; linear gradient of 10% acetonitrile to 90% acetonitrile—the corresponding data in Table 1 are labelled ^a).
(b) Mobile phases for the determination in the neutral range: 0.01 molar aqueous phosphate buffer solution, acetonitrile, linear gradient from 10% acetonitrile to 90% acetonitrile—the corresponding data in Table 1 are labelled ^b).
`CCn1ncc(C(=O)c2ccc(Cl)c(OCCn3nc(C)n(C)c3=O)c2C)c1OCc1ccc(Br)cc1` [Example 12]: the “logP (Physical data, Table 1)” value is listed as “logP = 2.07^a)”.

Regarding `CCn1ncc(C(=O)c2ccc(SC)c(OCCn3nc(C)n(C)c3=O)c2Cl)c1OCc1ccc(Br)cc1` [Example 14], the “logP (Physical data, Table 1)” value is recorded as “logP = 2.05^a)”.

`CCn1ncc(C(=O)c2ccc(Cl)c(OCCn3nc(OC)n(C)c3=O)c2Cl)c1O` [Example 15]: the “logP (Physical data, Table 1)” value is on record as “logP = 1.69^a)”.

Regarding `CCn1ncc(C(=O)c2ccc(Cl)c(OCCn3nc(SC)n(C)c3=O)c2Cl)c1O` [Example 16], the “logP (Physical data, Table 1)” value was “logP = 1.92^a)”.

Turning to `CCn1ncc(C(=O)c2ccc(Cl)c(OCCn3nc(OC)n(CC)c3=O)c2Cl)c1O` [Example 17], the “logP (Physical data, Table 1)” value is listed as “logP = 1.93^a)”.

For `CCn1ncc(C(=O)c2ccc(Cl)c(OCCn3nc(COC)n(C)c3=O)c2Cl)c1O` [Example 18], the “logP (Physical data, Table 1)” value is “logP = 1.62^a)”.

`COCc1nn(CCOc2c(Cl)ccc(C(=O)C3=C(O)CCCC3=O)c2Cl)c(=O)n1C` [Example 19]: the “logP (Physical data, Table 1)” value is “logP = 2.06^a)”.

As for `CCn1ncc(C(=O)c2ccc(SC)c(OC[C@@H]3CCC(=O)N3)c2Cl)c1O` [Example 20], the “logP (Physical data, Table 1)” value is reported as “(S enantiomer) logP = 1.60^a)”.

Turning to `CSc1nn(CCOc2c(Cl)ccc(C(=O)C3=C(O)CCCC3=O)c2Cl)c(=O)n1C` [Example 21], the “logP (Physical data, Table 1)” value was “logP = 2.39^a)”.

With `CCn1c(OC)nn(CCOc2c(Cl)ccc(C(=O)C3=C(O)CCCC3=O)c2Cl)c1=O` [Example 22], the “logP (Physical data, Table 1)” value is “logP = 2.16^a)”.

Regarding `CSc1ccc(C(=O)C2=C(O)CCCC2=O)c(Cl)c1OC[C@@H]1CCC(=O)N1` [Example 24], the “logP (Physical data, Table 1)” value was “(S enantiomer) logP = 1.98^a)”.

On to `CCn1ncc(C(=O)c2ccc(Cl)c(OCCn3nc(OC)n(CC)c3=O)c2C)c1O` [Example 25], for which the “logP (Physical data, Table 1)” value is “logP = 1.88^a)”.

As to `CCn1c(OC)nn(CCOc2c(Cl)ccc(C(=O)C3=C(O)CCCC3=O)c2C)c1=O` [Example 26], the “logP (Physical data, Table 1)” value is “logP = 2.15^a)”.

For the compound `CCn1ncc(C(=O)c2ccc(Cl)c(OCCn3nc(SC)n(C)c3=O)c2C)c1O` [Example 27], the “logP (Physical data, Table 1)” value is “logP = 2.11^a)”.

In the case of `CSc1nn(CCOc2c(Cl)ccc(C(=O)C3=C(O)CCCC3=O)c2C)c(=O)n1C` [Example 28], the “logP (Physical data, Table 1)” value is “logP = 2.38^a)”.

With `CCn1ncc(C(=O)c2ccc(Cl)c(OCCn3nc(OC)n(CC)c3=O)c2C)c1O` [Example 29], the “logP (Physical data, Table 1)” value is “logP = 2.12^a)”.

Turning to `CCn1ncc(C(=O)c2ccc(Cl)c(OCCn3nc(COC)n(C)c3=O)c2C)c1O` [Example 30], the “logP (Physical data, Table 1)” value is on record as “logP = 1.78^a)”.

Turning to `CCn1c(OC)nn(CCOc2c(Cl)ccc(C(=O)C3=C(O)CCCC3=O)c2C)c1=O` [Example 31], the “logP (Physical data, Table 1)” value was “logP = 2.38^a)”.

In the case of `COCc1nn(CCOc2c(Cl)ccc(C(=O)C3=C(O)CCCC3=O)c2C)c(=O)n1C` [Example 32], the “logP (Physical data, Table 1)” value was “logP = 2.04^a)”.

With `CCn1ncc(C(=O)c2ccc(SC)c(OCCn3nc(SC)n(C)c3=O)c2Cl)c1O` [Example 33], the “logP (Physical data, Table 1)” value is on record as “logP = 1.97^a)”.

For the compound `CSc1ccc(C(=O)C2=C(O)CCCC2=O)c(Cl)c1OCCn1nc(SC)n(C)c1=O` [Example 34], the “logP (Physical data, Table 1)” value was “logP = 2.36^a)”.

Consider `CCn1ncc(C(=O)c2ccc(Cl)c(OC[C@@H]3CCC(=O)N3)c2C)c1O` [Example 35], for which the “logP (Physical data, Table 1)” value was “(S enantiomer) [α]D^20 = +2.3 logP = 1.67^a)”.

`Cc1c(C(=O)C2=C(O)CCCC2=O)ccc(Cl)c1OC[C@@H]1CCC(=O)N1` [Example 36]: the “logP (Physical data, Table 1)” value was “(S enantiomer) logP = 1.94^a)”.

Turning to `CCn1ncc(C(=O)c2ccc(Cl)c(OC[C@@H]3CCC(=O)N3C)c2C)c1O` [Example 37], the “logP (Physical data, Table 1)” value is on record as “(S enantiomer) logP = 1.85^a)”.

`Cc1c(C(=O)C2=C(O)CCCC2=O)ccc(Cl)c1OC[C@@H]1CCC(=O)N1C` [Example 38]: the “logP (Physical data, Table 1)” value was “(S enantiomer) logP = 2.10^a)”.

In the case of `CN1C(=O)CC[C@H]1COc1c(Cl)ccc(C(=O)C2=C(O)CCCC2=O)c1Cl` [Example 39], the “logP (Physical data, Table 1)” value was “(S enantiomer) logP = 2.12^a)”.

Regarding `CCn1ncc(C(=O)c2ccc(Cl)c(OC[C@@H]3CCC(=O)N3C)c2Cl)c1O` [Example 40], the “logP (Physical data, Table 1)” value is reported as “(S enantiomer) logP = 1.67^a)”.

On to `COCc1nn(CCOc2c(SC)ccc(C(=O)C3=C(O)CCCC3=O)c2Cl)c(=O)n1C` [Example 44], for which the “logP (Physical data, Table 1)” value is recorded as “logP = 2.05^a)”.

For the compound `CCn1ncc(C(=O)c2ccc(SC)c(OC[C@@H]3CCC(=O)N3C)c2Cl)c1O` [Example 45], the “logP (Physical data, Table 1)” value was “(S enantiomer) logP = 1.68^a)”.

In the case of `CSc1ccc(C(=O)C2=C(O)CCCC2=O)c(Cl)c1OC[C@@H]1CCC(=O)N1C` [Example 46], the “logP (Physical data, Table 1)” value was “(S enantiomer) logP = 2.13^a)”.

For the compound `O=C1CC[C@@H](COc2c(Cl)ccc(C(=O)C3=C(O)CCCC3=O)c2Cl)N1` [Example 47], the “logP (Physical data, Table 1)” value is given as “(S enantiomer) logP = 1.95^a)”.

Turning to `CCn1ncc(C(=O)c2ccc(Cl)c(OC[C@@H]3CCC(=O)N3)c2Cl)c1O` [Example 48], the “logP (Physical data, Table 1)” value was “(S enantiomer) logP = 1.51^a)”.

Consider `CCn1ncc(C(=O)c2ccc(Br)c(OC[C@@H]3CCC(=O)N3)c2Br)c1O` [Example 60], for which the “logP (Physical data, Table 1)” value was “(S enantiomer) logP = 1.56^a)”.

For `O=C1CC[C@@H](COc2c(Br)ccc(C(=O)C3=C(O)CCCC3=O)c2Br)N1` [Example 61], the “logP (Physical data, Table 1)” value is “(S enantiomer) logP = 2.02^a)”.

Staying with this series, now noted: reversed-phase HPLC column (C 18), mobile-phase label not given; read-out: Log P (preparation examples).
As to `COC(=O)c1ccc(Cl)c(OCCn2nc(C)n(C)c2=O)c1C` [II-1, methyl 4-chloro-3-[2-(3′,4′-dimethyl-1′,2′,4′-1H-triazolin-5′-on-1′-yl)-ethoxy]-2-methyl-benzoate], the chromatographic logP was determined as 1.94.

For the compound `COC(=O)c1ccc(SC)c(OCCn2nc(C)n(C)c2=O)c1C` [II-2, methyl 3-[2-(3′,4′-dimethyl-1′,2′,4′-1H-triazolin-5′-on-1′-yl)-ethoxy]-2-methyl-4-methylthio-benzoate], the chromatographic logP turned out to be 1.89.

Take `CCOC(=O)c1ccc(S(C)(=O)=O)c(OCCn2nc(C)n(C)c2=O)c1C` [II-3, ethyl 3-[2-(3′,4′-dimethyl-1′,2′,4′-1H-triazolin-5′-on-1′-yl)-ethoxy]-2-methyl-4-methylsulphonyl-benzoate]: the chromatographic logP came to 1.76.

Consider `Cc1c(C(=O)O)ccc(Cl)c1OCCn1nc(C)n(C)c1=O` [II-4, 4-chloro-3-[2-(3′,4′-dimethyl-1′,2′,4′-1H-triazolin-5′-on-1′-yl)-ethoxy]-2-methyl-benzoic acid], for which the chromatographic logP is 1.37.

`Cc1nn(CCOc2c(Cl)ccc(C(=O)Cl)c2Cl)c(=O)n1C` [II-5, 2,4-dichloro-3-[2-(3′,4′-dimethyl-1′,2′,4′-1H-triazolin-5′-on-1′-yl)-ethoxy]-2-benzoyl chloride]: the chromatographic logP worked out at 1.24.

As to `CCOC(=O)c1ccc(Cl)c(OCn2nc(OCC)n(C)c2=O)c1Cl` [II-6, ethyl 3-(3′-ethoxy-4′-methyl-1′,2′,4′-1H-triazolin-5′-on-1′-yl)-methoxy-2,4-dichloro-benzoate], the chromatographic logP was determined as 2.77.
